From patent US9326506B2, “Preparation method, agricultural composition and applications of natural brassinolide analogs” (CHENGDU NEWSUN CROPSCIENCE CO., LTD, priority 2012, dated 2016)

System: rice
Assay: Low temperature assay on rice seedlings
Type: in vivo
Protocol: According to a low temperature assay, we measured parameters including plant height, number of leaf, area of leaf, number of tiller, weight of root at low temperature to completely determine effects of the natural brassinolide analogues on the resistance to low temperature of a plant.
The natural brassinolide analogues, BR1, BR2, BR3, BR4, BR5 and BR6, used herein, were those prepared by the method of Example 1. Respectively the analogues were dissolved into 95% (V/V) ethanol solution, and then diluted with pure water to 1 mg/L, 0.1 mg/L, 0.01 mg/L, 0.001 mg/L and 0.0001 mg/L. In addition, pure water was used as a control.
After rice seeds were disinfected by using 5% sodium hypochlorite solution treatment, they were rinsed with distilled water until their pH>7, placed into a petri dish in a dark incubator, and cultured by using water at 30° C.±2° C. for 9 days. Then respectively the nine-day-old etiolated seedlings of rice were immersed in the above solutions containing different concentrations of the natural brassinolide analogues or pure water, and cultured at the temperature of 1° C., 2° C., 3° C., 4° C. and 5° C. for 24 hr. The parameters including plant height, area of leaf and weight of root after 3, 6, 9 and 12 days and number of leaf and number of tiller after 12 days were measured.

C=C(C(C)C)[C@@H](O)[C@H](O)[C@@H](C)[C@H]1CCC2C3COC(=O)C4C[C@H](O)[C@H](O)C[C@]4(C)C3CC[C@@]21C (stereo partly shown) [BR3]
Area of leaf (0.001 mg/l, 2 °C, 6 days): 11.6 cm^2
Height (0.001 mg/l, 2 °C, 6 days): 7.1 cm
Weight of root (0.001 mg/l, 2 °C, 6 days): 3.0 g
Area of leaf (0.001 mg/l, 2 °C, 9 days): 12 cm^2
Height (0.001 mg/l, 2 °C, 9 days): 7.1 cm
Weight of root (0.001 mg/l, 2 °C, 9 days): 3.1 g
Area of leaf (0.001 mg/l, 2 °C, 12 days): 13.1 cm^2
Height (0.001 mg/l, 2 °C, 12 days): 7.3 cm
Number of leaf (0.001 mg/l, 2 °C, 12 days): 3
Number of tiller (0.001 mg/l, 2 °C, 12 days): 3
Weight of root (0.001 mg/l, 2 °C, 12 days): 3.9 g
Area of leaf (0.001 mg/l, 3 °C, 3 days): 10 cm^2
Height (0.001 mg/l, 3 °C, 3 days): 7 cm
Weight of root (0.001 mg/l, 3 °C, 3 days): 2.5 g
Area of leaf (0.001 mg/l, 3 °C, 6 days): 12 cm^2
Height (0.001 mg/l, 3 °C, 6 days): 7.2 cm
Weight of root (0.001 mg/l, 3 °C, 6 days): 2.7 g
Area of leaf (0.001 mg/l, 3 °C, 9 days): 12.2 cm^2
Height (0.001 mg/l, 3 °C, 9 days): 7.3 cm
Weight of root (0.001 mg/l, 3 °C, 9 days): 2.9 g
Area of leaf (0.001 mg/l, 3 °C, 12 days): 13 cm^2
Height (0.001 mg/l, 3 °C, 12 days): 7.4 cm
Number of leaf (0.001 mg/l, 3 °C, 12 days): 3
Number of tiller (0.001 mg/l, 3 °C, 12 days): 2
Weight of root (0.001 mg/l, 3 °C, 12 days): 2.9 g
Area of leaf (0.001 mg/l, 4 °C, 3 days): 10 cm^2
Height (0.001 mg/l, 4 °C, 3 days): 7.1 cm
Weight of root (0.001 mg/l, 4 °C, 3 days): 2.5 g
Area of leaf (0.001 mg/l, 4 °C, 6 days): 12 cm^2
Height (0.001 mg/l, 4 °C, 6 days): 7.3 cm
Weight of root (0.001 mg/l, 4 °C, 6 days): 2.6 g
Area of leaf (0.001 mg/l, 4 °C, 9 days): 13 cm^2
Height (0.001 mg/l, 4 °C, 9 days): 7.4 cm
Weight of root (0.001 mg/l, 4 °C, 9 days): 2.9 g
Area of leaf (0.001 mg/l, 4 °C, 12 days): 13.1 cm^2
Height (0.001 mg/l, 4 °C, 12 days): 7.5 cm
Number of leaf (0.001 mg/l, 4 °C, 12 days): 3
Number of tiller (0.001 mg/l, 4 °C, 12 days): 2
Weight of root (0.001 mg/l, 4 °C, 12 days): 2.9 g
Area of leaf (0.001 mg/l, 5 °C, 3 days): 10.2 cm^2
Height (0.001 mg/l, 5 °C, 3 days): 7.2 cm
Weight of root (0.001 mg/l, 5 °C, 3 days): 2.8 g
Area of leaf (0.001 mg/l, 5 °C, 6 days): 14 cm^2
Height (0.001 mg/l, 5 °C, 6 days): 7.5 cm
Weight of root (0.001 mg/l, 5 °C, 6 days): 2.9 g
Area of leaf (0.001 mg/l, 5 °C, 9 days): 15.4 cm^2
Height (0.001 mg/l, 5 °C, 9 days): 7.8 cm
Weight of root (0.001 mg/l, 5 °C, 9 days): 3.0 g
Area of leaf (0.001 mg/l, 5 °C, 12 days): 16 cm^2
Height (0.001 mg/l, 5 °C, 12 days): 7.9 cm
Number of leaf (0.001 mg/l, 5 °C, 12 days): 3
Number of tiller (0.001 mg/l, 5 °C, 12 days): 3
Weight of root (0.001 mg/l, 5 °C, 12 days): 3.7 g
Area of leaf (0.01 mg/l, 1 °C, 3 days): 10 cm^2
Height (0.01 mg/l, 1 °C, 3 days): 7.0 cm
Weight of root (0.01 mg/l, 1 °C, 3 days): 2.8 g
Area of leaf (0.01 mg/l, 1 °C, 6 days): 11.6 cm^2
Height (0.01 mg/l, 1 °C, 6 days): 7.1 cm
Weight of root (0.01 mg/l, 1 °C, 6 days): 3.0 g
Area of leaf (0.01 mg/l, 1 °C, 9 days): 12.4 cm^2
Height (0.01 mg/l, 1 °C, 9 days): 7.4 cm
Weight of root (0.01 mg/l, 1 °C, 9 days): 3.1 g
Area of leaf (0.01 mg/l, 1 °C, 12 days): 13.6 cm^2
Height (0.01 mg/l, 1 °C, 12 days): 7.5 cm
Number of leaf (0.01 mg/l, 1 °C, 12 days): 3
Number of tiller (0.01 mg/l, 1 °C, 12 days): 3
Weight of root (0.01 mg/l, 1 °C, 12 days): 3.9 g
Area of leaf (0.01 mg/l, 2 °C, 3 days): 10.1 cm^2
Height (0.01 mg/l, 2 °C, 3 days): 7.1 cm
Weight of root (0.01 mg/l, 2 °C, 3 days): 2.8 g
Area of leaf (0.01 mg/l, 2 °C, 6 days): 11 cm^2
Height (0.01 mg/l, 2 °C, 6 days): 7.2 cm
Weight of root (0.01 mg/l, 2 °C, 6 days): 3.1 g
Area of leaf (0.01 mg/l, 2 °C, 9 days): 12.5 cm^2
Height (0.01 mg/l, 2 °C, 9 days): 7.4 cm
Weight of root (0.01 mg/l, 2 °C, 9 days): 3 g
Area of leaf (0.01 mg/l, 2 °C, 12 days): 13.4 cm^2
Height (0.01 mg/l, 2 °C, 12 days): 7.5 cm
Number of leaf (0.01 mg/l, 2 °C, 12 days): 3
Number of tiller (0.01 mg/l, 2 °C, 12 days): 3
Weight of root (0.01 mg/l, 2 °C, 12 days): 3.2 g
Area of leaf (0.01 mg/l, 3 °C, 3 days): 10.2 cm^2
Height (0.01 mg/l, 3 °C, 3 days): 7.1 cm
Weight of root (0.01 mg/l, 3 °C, 3 days): 2.5 g
Area of leaf (0.01 mg/l, 3 °C, 6 days): 12 cm^2
Height (0.01 mg/l, 3 °C, 6 days): 7.3 cm
Weight of root (0.01 mg/l, 3 °C, 6 days): 2.7 g
Area of leaf (0.01 mg/l, 3 °C, 9 days): 12.1 cm^2
